In patent US20160178613A1, “Electrical Cell-substrate Impedance Sensor (ECIS)” (priority 2015, published 2016):

Experiments:
MCF-7 cells = assay: SiNW-ECIS electrical impedance/capacitance response of MCF-7 cells treated with antitubulin drugs; assay type: cell-based, human; settings: PTX 0.1 nano-moles per liter; for changes in membrane impedance vs control sample (normalized, mean) / variations in capacitance of the sensor vs control sample (normalized): MCF-7, 2 hours (T1) after drug incubation; for changes in membrane impedance vs control sample (normalized, mean) / variations in capacitance of the sensor vs control sample (normalized) / change in norm of impedance of treated cells, T1 vs T2 / changes in electrical impedance with respect to control sample / norm of capacitive changes, control sample more than drug value: ABZ 2.1 nano-moles per liter; for changes in electrical impedance with respect to control sample / norm of capacitive changes, control sample more than drug value: MCF-7, 6 hours (T2) after drug incubation
Experimental: In this example, the diagnostic response of cells membrane to extremely low dose of antitubulin drugs is investigated. Initially, MCF-7 cell lines, isolated from grade I human breast tumors, were obtained from the National Cell Bank of Iran (Pasteur Institute). Then, cells were maintained in a CO2 incubator (37° C., 5% CO2) in RPMI-1640 medium supplemented with 5% fetal bovine serum, and 1% penicillin/streptomycin. The fresh medium was replaced every other day. Then, the cultured cells were dropped on the surface of the SiNW-ECIS, designed and fabricated pursuant to teachings of the present application. Prior to each experiment, cells were trypsinized to be detached from the substrate and resuspended on the SiNW surface. To minimize the effect of trypsinization, the procedure may last for less than 4 minutes at room temperature of about 20° C. The samples were held in an incubator for about 4 hours to achieve cells attachment on the SiNWs. Thereafter, the ABZ drug with low concentrations of about 2.1 nano-moles per liter and the PTX drug with low concentrations of about 0.1 nano-moles per liter were added to individual samples. Finally, the signal recording and biological assays were investigated about 2 hours and 6 hours after the drug treatment (6 hours and 10 hours after the beginning of culturing process).
Referring to FIGS. 12A-12G, comparative normalized diagrams of impedance (designated by ΔZ % and represented by solid black lines) and capacitance changes (designated by ΔC % and represented by dashed grey lines) are illustrated for MCF-7 cells seeded on SiNW electrodes after treating by 2.1 nano-moles per liter of ABZ and 0.1 nano-moles per liter of PTX. The time interval between the drug incubation and the signal extraction are 2 hours (designated by T1) and 6 hours (designated by T2). In addition, the same diagrams are plotted for control sample prepared with no drug treatment stage.
According to the method described in the present example, the samples were maintained in an incubator so that the signal extraction was repeated 10 hours after cells dropping (6 hours after drug incubation for treated samples) to monitor the time evolution of drug induced MT polymerization/depolymerization on bioelectrical response of the membrane.

[1] = test system: tubulin assemblies of MCF-7 cells; assay: Confocal microscopy of tubulin assemblies of MCF-7 cells; assay type: cell-based, human; settings: ABZ 2.1 nano-moles per liter, PTX 0.1 nano-moles per liter
Experimental: In addition, an un-treated control sample was prepared as reference for comparison. Then, samples were washed with PBS and permeabilized with microtubule stabilizing buffer [80 mM PIPES-KOH (pH 6.8), 5 mM EGTA, and 1 mM MgCl2 containing 0.5% Triton X-100] for 5 min at room temperature before being fixed with chilled absolute methanol for 10 min at −20° C. Thereafter, the fixed cells were washed and incubated with monoclonal mouse anti-α-tubulin antibody (Sigma Co.) for 1 hour at room temperature followed by incubation with FITC-conjugated antimouse IgG antibody (Santa Cruz Biotechnology). The stained cells were mounted with Vectashield (Vector Laboratories, Burlingame, Calif.) and observed by confocal microscopy.

[2] = MCF-7, 2 hours vs 6 hours after drug incubation

Compound: CCCSc1ccc2nc(NC(=O)OC)[nH]c2c1 [ABZ, Albendazole]
- changes in membrane impedance vs control sample (normalized, mean) (MCF-7 cells): 25%
- variations in capacitance of the sensor vs control sample (normalized) (MCF-7 cells): 70%
- change in norm of impedance of treated cells, T1 vs T2 (MCF-7 cells; [2]): about 60%
- changes in electrical impedance with respect to control sample (MCF-7 cells): about 90%
- norm of capacitive changes, control sample more than drug value (MCF-7 cells): about 90%
- spindle / microtubule morphology in confocal image ([1]; MCF-7, 2 hours after treatment): abnormally reduced numbers of spindles or monopolar (monoaster) spindles
- spindle / microtubule morphology in confocal image ([1]; MCF-7, 6 hours after treatment): still the monoastered MTs are observable

Compound: CC(=O)O[C@H]1C(=O)[C@@]2(C)[C@H]([C@H](OC(=O)c3ccccc3)[C@]3(O)C[C@H](OC(=O)[C@H](O)[C@@H](NC(=O)c4ccccc4)c4ccccc4)C(C)=C1C3(C)C)[C@]1(OC(C)=O)CO[C@@H]1C[C@@H]2O [PTX, Paclitaxel]
- changes in membrane impedance vs control sample (normalized, mean) (MCF-7 cells): about 50%
- variations in capacitance of the sensor vs control sample (normalized) (MCF-7 cells): about 60%
- change in norm of impedance of treated cells, T1 vs T2 (MCF-7 cells; [2]): 15%
- time dependent variation in capacitive behavior, T1 vs T2 (MCF-7 cells; [2]): about 85%
- changes in electrical impedance with respect to control sample (MCF-7 cells): about 30%
- norm of capacitive changes, control sample more than drug value (MCF-7 cells): ~75%
- spindle / microtubule morphology in confocal image ([1]; MCF-7, 2 hours after treatment): aggregated spindles
- spindle / microtubule morphology in confocal image ([1]; MCF-7, 6 hours after treatment): increased aggregation in MT spindles
